# Experimental data taken from patent publication US10131651B2, “[7,6]-fused bicyclic antidiabetic compounds” (Merck Sharp & Dohme Corp., priority 2014, dated 2018).
# Target: human GPR40 (Homo sapiens (Human), UniProt O14842)
# Experiment: Inositol Phosphate Turnover (IP1) Assay
# Format: cell-based
# Conditions: HEK cells stably expressing human GPR40
# Method: Human and mouse GPR40 stable cell-lines were generated in CHO cells stably expressing NFAT BLA (Beta-lactamase). A human GPR40 stable cell-line was generated in HEK cells stably expressing the acquorin expressing reporter. The expression plasmids were transfected using lipofectamine (Life Technologies) following manufacturer's instructions. Stable cell-lines were generated following drug selection.
# The assay is performed in 384-well format. HEK cells stably expressing human GPR40 are plated at 15,000 cells per well in growth medium (DMEM/10% fetal calf serum). Cell plates are then incubated 16 hours at 37 degrees in a 5% CO2 incubator.
# Measurement of Inositol Phosphate Turnover (IP1) is performed using the CisBio IP-One kit (Part number 62IPAPEB). After the 16 hour incubation, the cells are washed with HEPES buffer and 10 ul of stimulation buffer (prepared as described in the kit) is added to each well. In a separate plate, compounds are diluted in DMSO (400-fold over the final concentration in the assay well) and 25 nl is acoustically transferred to the appropriate well in the assay cell plate. The plates are then incubated for 60 minutes at 37 degrees. 10 ul of detection buffer (also prepared as described in the IP-One kit) is added to each well and the plates are incubated for 60 minutes in the dark. The plates are then read in a Perkin Elmer EnVision or equivalent reader able to measure FRET. Fluorescent ratio of emission at 665 and 620 nm is then converted to IP1 concentration by back calculating from an IP1 standard curve prepared at the time of the assay.
# Chain of human GPR40 (O14842 whole entry): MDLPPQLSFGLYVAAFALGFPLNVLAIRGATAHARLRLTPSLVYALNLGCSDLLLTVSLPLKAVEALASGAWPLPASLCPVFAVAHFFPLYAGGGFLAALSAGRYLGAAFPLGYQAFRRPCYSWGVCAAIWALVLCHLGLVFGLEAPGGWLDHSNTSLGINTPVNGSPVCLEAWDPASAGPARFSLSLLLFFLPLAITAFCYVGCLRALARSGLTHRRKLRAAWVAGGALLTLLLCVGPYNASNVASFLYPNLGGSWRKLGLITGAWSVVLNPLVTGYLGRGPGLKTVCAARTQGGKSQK
row,EC50 [nM],Compound
1,13,"C[C@H](C(=O)O)[C@H](c1ccc2c(c1)OC(C1CN(Cc3cc(C(F)(F)F)ccc3C(F)(F)F)C1)CCC2)C1CC1 (single isomer, unassigned) [Example 3, (2S, 3R)-3-((R or S)-2-(1-(2,5-bis (trifluoromethyl)benzyl)azetidin-3-yl)-2,3,4,5-tetrahydrobenzo[b]oxepin-8-yl)-3-cyclopropyl-2-methylpropanoic acid]"
2,27,"C[C@H](C(=O)O)[C@H](c1ccc2c(c1)OC(C1CN(Cc3cc(C(F)(F)F)ccc3C(F)(F)F)C1)CCC2)C1CC1 (single isomer, unassigned) [Example 4, (2S,3R)-3-((R or S)-2-(1-(2,5-bis(trifluoromethyl)-benzyl)azetidin-3-yl)-2,3,4,5-tetrahydrobenzo[b]-oxepin-8-yl)-3-cyclopropyl-2-methylpropanoic acid]"
3,5.2,"COc1cc(-c2ccc(C3CCCc4ccc([C@H](C5CC5)[C@H](C)C(=O)O)cc4O3)cc2)c(F)cn1 (single isomer, unassigned) [Example 6, (2S,3R)-3-cyclopropyl-3-((R or S)-2-(4-(5-fluoro-2-methoxypyridin-4-yl)phenyl)-2,3,4,5-tetrahydrobenzo[b]oxepin-8-yl)-2-methylpropanoic acid]"
4,3.1,"COc1cc(-c2ccc(C3CCCc4ccc([C@H](C5CC5)[C@H](C)C(=O)O)cc4O3)cc2)c(F)cn1 (mixture of isomers) [Example 5, (2S,3R)-3-cyclopropyl-3-((RS)-2-(4-(5-fluoro-2-methoxypyridin-4-yl)phenyl)-2,3,4,5-tetrahydrobenzo[b]oxepin-8-yl)-2-methylpropanoic acid]"
5,684,"COc1cc(-c2cnc(C3CCCc4ccc([C@H](C5CC5)[C@H](C)C(=O)O)cc4O3)cn2)c(F)cn1 (single isomer, unassigned) [Example 13]"
6,3.6,"COc1cc(-c2ccc(C3CCCc4ccc([C@H](C5CC5)[C@H](C)C(=O)O)cc4O3)c(F)c2)ccn1 (single isomer, unassigned) [Example 1, (2S,3R)-3-cyclopropyl-3-((R or S)-2-(2-fluoro-4-(2-methoxypyridin-4-yl)phenyl)-2,3,4,5-tetrahydrobenzo[b]oxepin-8-yl)-2-methylpropanoic acid]"
7,29,"COc1cc(-c2ccc(C3CCCc4ccc([C@H](C5CC5)[C@H](C)C(=O)O)cc4O3)nc2)c(F)cn1 (single isomer, unassigned) [Example 8, (2S,3R)-3-cyclopropyl-3-((R or S)-2-(5′-fluoro-2′-methoxy-[3,4′-bipyridin]-6-yl)-2,3,4,5-tetrahydrobenzo[b]oxepin-8-yl)-2-methylpropanoic acid]"
8,6,"COc1ccc(F)c(-c2ccc(C3CCCc4ccc([C@H](C5CCC5)[C@H](C)C(=O)O)cc4O3)cc2)c1 (single isomer, unassigned) [Example 11, Sodium (2S,3R)-3-cyclobutyl-3-((R or S)-2-(2′-fluoro-5′-methoxy-[1,1′-biphenyl]-4-yl)-2,3,4,5-tetrahydrobenzo[b]oxepin-8-yl)-2-methylpropanoate]"
9,3,"COc1cc(-c2ccc(C3CCCc4ccc([C@H](C5CC5)[C@H](C)C(=O)O)cc4O3)nc2)c(F)cn1 (mixture of isomers) [Example 7, (2S,3R)-3-cyclopropyl-3-((RS)-2-(5′-fluoro-2′-methoxy-[3,4′-bipyridin]-6-yl)-2,3,4,5-tetrahydrobenzo[b]oxepin-8-yl)-2-methylpropanoic acid]"
10,14,"COc1cc(-c2ccc(C3CCCc4ccc([C@H](C5CC5)[C@H](C)C(=O)O)cc4O3)c(F)c2)ccn1 (single isomer, unassigned) [Example 2, (2S,3R)-3-cyclopropyl-3-((R or S)-2-(2-fluoro-4-(2-methoxypyridin-4-yl)phenyl)-2,3,4,5-tetrahydrobenzo[b]oxepin-8-yl)-2-methylpropanoic acid]"
11,4.6,"COc1ccc(F)c(-c2ccc(C3CCCc4ccc([C@H](C5CCC5)[C@H](C)C(=O)O)cc4O3)cc2)c1 (single isomer, unassigned) [Example 10, Sodium (2S,3R)-3-cyclobutyl-3-((R or S)-2-(2′-fluoro-5′-methoxy-[1,1′-biphenyl]-4-yl)-2,3,4,5-tetrahydrobenzo[b]oxepin-8-yl)-2-methylpropanoate]"
12,116,"COc1cc(-c2cnc(C3CCCc4ccc([C@H](C5CC5)[C@H](C)C(=O)O)cc4O3)cn2)c(F)cn1 (single isomer, unassigned) [Example 12]"
